Measured values reported in patent US11311542B2, “Inhibitors of cyclin dependent kinase 7 (CDK7)” (Syros Pharmaceuticals, Inc., priority 2018, dated 2022).

Key:
[1] = target: CDK2/Cyclin E1 complex (Homo sapiens, UniProt P24941); assay: CDK2 kinase inhibition assay (Caliper/LabChip EZ Reader)
Protocol: Compounds described herein were assayed for inhibition of CDK7, CDK9, CDK12, and CDK2 activity at Biortus Biosciences (Jiangyin, Jiangsu Province, P.R. of China) using kinase assays for each CDK developed with a Caliper/LabChip EZ Reader (Perkin Elmer, Waltham, Mass.).
Furthermore, the CDK9 inhibition assay used CDK9/Cyclin T1 complex (8 nM) and “5-FAM-CDK9tide” peptide substrate (2 μM, synthesized fluorophore-labeled peptide with the following sequence: 5-FAM-GSRTPMY-NH2 (SEQ ID NO:2) where 5-FAM is defined above and NH2 signifies a C-terminal amide) with 10 mM MgCl2 in the buffer composition listed above. The CDK12 inhibition assay used CDK12 (aa686-1082)/Cyclin K complex (50 nM) and “5-FAM-CDK9tide” (2 μM) as defined above, with 2 mM MgCl2 in the buffer composition above. Additionally, the CDK2 inhibition assay used CDK2/Cyclin E1 complex (0.5 nM) and “5-FAM-CDK7tide” (2 μM; defined above) with 2 mM MgCl2 in the buffer composition above.
The incubation period at 27° C. for each CDK inhibition assay was chosen such that the fraction of phosphorylated peptide product produced in each assay, relative to the total peptide concentration, was approximately 20% (±5%) for the uninhibited kinase (35 min. for CDK7, 35 min. for CDK2, 3 hr. for CDK12, 15 min. for CDK9).

[2] = tested on: MB453 cells; assay: Inhibition of cell proliferation (CyQUANT Direct), MB453; format: cell-based, human; conditions: Homo sapiens, MB453, 72-hour
Protocol: (§1) HCC70 and MB453 cells are cell lines derived from human triple negative breast cancer COV318 and COV504 cells are cell lines derived from human ovarian cancer. Representative compounds of the invention were tested at different concentrations (from 4 μM to 126.4 pM; 0.5 log serial dilutions) for their ability to inhibit the proliferation of each of these cell lines. Known CDK inhibitors dinaciclib or N-((1S,3R)-3-((5-chloro-4-(1H-indol-3-yl) pyrimidin-2-yl)amino)cyclohexyl)-5-((E)-4-(dimethylamino)but-2-enamido)picolinamide and triptolide were used as positive controls. Cells were seeded at approximately 2,000 cells/well and grown in ATCC-formulated RPMI-1640 Medium (ATCC 30-2001)+10% FBS. The cells were cultured at 37° C. in a humidified chamber in the presence of 5% CO2. Proliferation assays were conducted over a 72-hour time period. CyQUANT® Direct Cell Proliferation Assay (Life Technologies, Chicago, Ill. USA) was used to assess the anti-proliferative effects of the compounds following manufacturer's directions and utilizing the reagents supplied with the CyQUANT® Direct Cell kit.

[3] = tested on: HCC70 cells; assay: Inhibition of cell proliferation (CyQUANT Direct), HCC70; format: cell-based, human; conditions: Homo sapiens, HCC70, 72-hour
Protocol: as §1

[4] = tested on: COV318 cells; assay: Inhibition of cell proliferation (CyQUANT Direct), COV318; format: cell-based, human; conditions: Homo sapiens, COV318, 72-hour
Protocol: as §1

[5] = target: CDK9/Cyclin T1 complex (Homo sapiens, UniProt P50750); assay: CDK9 kinase inhibition assay (Caliper/LabChip EZ Reader)
CDK9/Cyclin T1 complex, sequence (P50750 whole entry): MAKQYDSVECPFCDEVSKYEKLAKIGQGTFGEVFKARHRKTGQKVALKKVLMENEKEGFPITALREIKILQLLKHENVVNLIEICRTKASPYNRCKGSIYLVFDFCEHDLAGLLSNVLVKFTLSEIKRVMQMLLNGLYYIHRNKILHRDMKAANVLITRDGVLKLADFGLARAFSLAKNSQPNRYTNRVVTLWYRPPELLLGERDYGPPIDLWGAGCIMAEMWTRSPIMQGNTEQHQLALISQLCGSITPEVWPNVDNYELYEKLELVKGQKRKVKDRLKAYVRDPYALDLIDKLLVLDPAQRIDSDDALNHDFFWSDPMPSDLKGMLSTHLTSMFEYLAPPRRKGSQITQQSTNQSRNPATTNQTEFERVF
CDK9/Cyclin T1 complex, sequence (O60563 whole entry partner): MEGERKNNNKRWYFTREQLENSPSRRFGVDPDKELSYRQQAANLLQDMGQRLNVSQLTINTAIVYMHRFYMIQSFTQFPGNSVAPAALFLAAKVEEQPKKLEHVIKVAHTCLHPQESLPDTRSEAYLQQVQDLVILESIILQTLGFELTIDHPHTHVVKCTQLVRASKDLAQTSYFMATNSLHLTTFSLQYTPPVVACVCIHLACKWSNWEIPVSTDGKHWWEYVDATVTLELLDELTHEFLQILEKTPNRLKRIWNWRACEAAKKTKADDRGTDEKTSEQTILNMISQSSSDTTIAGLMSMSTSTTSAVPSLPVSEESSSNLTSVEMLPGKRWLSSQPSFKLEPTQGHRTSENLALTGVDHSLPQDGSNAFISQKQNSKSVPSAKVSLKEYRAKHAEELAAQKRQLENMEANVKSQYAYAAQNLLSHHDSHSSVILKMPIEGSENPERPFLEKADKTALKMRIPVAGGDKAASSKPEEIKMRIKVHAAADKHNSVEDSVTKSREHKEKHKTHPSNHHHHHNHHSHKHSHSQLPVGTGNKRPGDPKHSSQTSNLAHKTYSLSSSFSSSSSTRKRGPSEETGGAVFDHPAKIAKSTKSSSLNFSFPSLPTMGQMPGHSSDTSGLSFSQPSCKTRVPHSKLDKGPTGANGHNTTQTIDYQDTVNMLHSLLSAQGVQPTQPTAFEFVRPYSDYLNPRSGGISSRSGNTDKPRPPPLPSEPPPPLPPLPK

[6] = tested on: COV504 cells; assay: Inhibition of cell proliferation (CyQUANT Direct), COV504; format: cell-based, human; conditions: Homo sapiens, COV504, 72-hour
Protocol: as §1

[7] = target: CDK12 (aa686-1082)/Cyclin K complex (Homo sapiens, UniProt Q9NYV4); assay: CDK12 kinase inhibition assay (Caliper/LabChip EZ Reader)
CDK12 (aa686-1082)/Cyclin K complex, sequence (Q9NYV4 686-1082): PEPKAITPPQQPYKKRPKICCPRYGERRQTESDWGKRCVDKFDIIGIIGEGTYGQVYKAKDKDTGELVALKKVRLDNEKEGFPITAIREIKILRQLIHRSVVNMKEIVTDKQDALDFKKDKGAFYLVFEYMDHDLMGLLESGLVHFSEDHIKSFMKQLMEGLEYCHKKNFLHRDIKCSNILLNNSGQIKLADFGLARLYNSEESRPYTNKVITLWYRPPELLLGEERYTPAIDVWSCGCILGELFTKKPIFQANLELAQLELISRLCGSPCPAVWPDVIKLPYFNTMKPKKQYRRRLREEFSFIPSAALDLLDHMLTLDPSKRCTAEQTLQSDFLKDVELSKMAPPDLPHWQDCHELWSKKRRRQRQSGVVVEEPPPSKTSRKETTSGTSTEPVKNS
CDK12 (aa686-1082)/Cyclin K complex, sequence (O75909 whole entry partner, the tested form may be a part): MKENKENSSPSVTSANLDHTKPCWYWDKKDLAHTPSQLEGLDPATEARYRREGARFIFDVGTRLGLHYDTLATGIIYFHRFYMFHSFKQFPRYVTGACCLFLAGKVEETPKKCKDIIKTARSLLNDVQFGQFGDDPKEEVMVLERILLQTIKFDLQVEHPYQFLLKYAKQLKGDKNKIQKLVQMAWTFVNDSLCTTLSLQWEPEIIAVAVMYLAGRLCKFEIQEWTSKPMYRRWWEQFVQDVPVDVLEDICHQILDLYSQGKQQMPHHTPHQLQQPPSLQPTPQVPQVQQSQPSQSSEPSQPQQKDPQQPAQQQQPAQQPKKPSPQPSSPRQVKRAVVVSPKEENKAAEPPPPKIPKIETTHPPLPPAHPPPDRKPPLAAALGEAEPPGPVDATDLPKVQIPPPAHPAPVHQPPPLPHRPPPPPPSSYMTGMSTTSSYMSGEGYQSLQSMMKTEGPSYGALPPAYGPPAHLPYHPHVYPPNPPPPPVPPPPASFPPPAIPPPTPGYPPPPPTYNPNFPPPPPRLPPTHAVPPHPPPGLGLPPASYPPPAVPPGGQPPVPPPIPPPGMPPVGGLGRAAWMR

[8] = target: CDK7/Cyclin H/MAT1 complex (Homo sapiens, UniProt P50613); assay: CDK7 kinase inhibition assay (Caliper/LabChip EZ Reader)
CDK7/Cyclin H/MAT1 complex, sequence (P50613 whole entry): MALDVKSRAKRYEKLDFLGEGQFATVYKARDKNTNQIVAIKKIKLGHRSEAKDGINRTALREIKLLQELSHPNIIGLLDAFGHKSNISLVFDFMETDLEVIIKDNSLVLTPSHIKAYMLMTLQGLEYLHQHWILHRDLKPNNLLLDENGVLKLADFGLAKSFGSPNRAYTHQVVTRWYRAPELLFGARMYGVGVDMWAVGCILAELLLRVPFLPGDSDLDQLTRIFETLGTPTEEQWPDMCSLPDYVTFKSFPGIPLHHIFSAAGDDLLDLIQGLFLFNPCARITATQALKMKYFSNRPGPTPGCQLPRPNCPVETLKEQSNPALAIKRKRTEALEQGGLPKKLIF
CDK7/Cyclin H/MAT1 complex, sequence (P51946 whole entry partner): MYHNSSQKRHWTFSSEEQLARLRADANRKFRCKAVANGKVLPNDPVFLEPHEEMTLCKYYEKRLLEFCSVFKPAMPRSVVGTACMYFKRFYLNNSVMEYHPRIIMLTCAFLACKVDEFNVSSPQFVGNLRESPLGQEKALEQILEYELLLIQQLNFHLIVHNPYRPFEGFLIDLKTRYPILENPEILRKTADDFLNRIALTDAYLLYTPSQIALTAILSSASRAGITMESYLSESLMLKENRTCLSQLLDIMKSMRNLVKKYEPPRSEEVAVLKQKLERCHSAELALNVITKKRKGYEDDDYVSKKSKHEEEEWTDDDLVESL
CDK7/Cyclin H/MAT1 complex, sequence (P51948 whole entry partner): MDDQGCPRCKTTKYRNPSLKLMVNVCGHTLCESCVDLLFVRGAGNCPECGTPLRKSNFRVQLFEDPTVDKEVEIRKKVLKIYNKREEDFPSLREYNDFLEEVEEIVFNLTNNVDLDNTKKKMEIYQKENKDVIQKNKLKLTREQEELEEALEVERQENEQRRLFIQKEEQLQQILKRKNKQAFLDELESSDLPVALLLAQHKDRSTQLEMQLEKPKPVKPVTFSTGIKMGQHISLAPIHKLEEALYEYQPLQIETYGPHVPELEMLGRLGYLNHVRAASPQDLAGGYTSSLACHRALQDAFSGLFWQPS

Row | Compound | IC50 [1] [µM] | IC50 [2] [µM] | IC50 [3] [µM] | IC50 [4] [µM] | IC50 [5] [µM] | IC50 [6] [µM] | IC50 [7] [µM] | IC50 [8] [µM]
1 | Cc1noc(C)c1-c1ccc2c(-c3nc(N[C@H]4CCCNC4)ncc3C(F)(F)F)n[nH]c2c1 [Compound 100, 4-[6-(3,5-dimethylisoxazol-4-yl)-1H-indazol-3-yl]-N-[(3S)-3-piperidyl]-5-(trifluoromethyl)pyrimidin-2-amine] | > 0.5 | < 0.1 | < 0.1 | 0.1 to 0.5 | > 0.5 | < 0.1 | > 0.5 | < 0.03
2 | Cc1nocc1-c1ccc2c(-c3nc(N[C@H]4CC[C@H](C)NC4)ncc3C(F)(F)F)c[nH]c2n1 [Compound 156, 4-[6-(3-methylisoxazol-4-yl)-1H-pyrrolo[2,3-b]pyridin-3-yl]-N-[(3S,6S)-6-methyl-3-piperidyl]-5-(trifluoromethyl)pyrimidin-2-amine] | > 0.5 | 0.1 to 0.5 | 0.5 to 1 | > 1 | > 0.5 | 0.1 to 0.5 | > 0.5 | < 0.03
3 | Cc1noc(C)c1-c1ccc2c(-c3nc(N[C@@H]4CNC[C@H](C(=O)N(C)C)C4)ncc3C(F)(F)F)c[nH]c2n1 [Compound 119, (3R,5S)-5-[[4-[6-(3,5-dimethylisoxazol-4-yl)-1H-pyrrolo[2,3-b]pyridin-3-yl]-5-(trifluoromethyl)pyrimidin-2-yl]amino]-N,N-dimethyl-piperidine-3-carboxamide] | > 0.5 | < 0.1 | < 0.1 | > 1 | > 0.5 | < 0.1 | > 0.5 | < 0.03
4 | Cc1nscc1-c1ccc2c(-c3nc(N[C@H]4CCCNC4)ncc3C(F)(F)F)c[nH]c2c1 [Compound 128] | > 0.5 | < 0.1 | < 0.1 | 0.1 to 0.5 | > 0.5 | < 0.1 | > 0.5 | < 0.03
5 | Cc1nsc(-c2ccc3c(-c4nc(N[C@@H]5CC[C@@H](C)NC5)ncc4C(F)(F)F)c[nH]c3n2)n1 [Compound 159, N-[(3R,6R)-6-methyl-3-piperidyl]-4-[6-(3-methyl-1,2,4-thiadiazol-5-yl)-1H-pyrrolo[2,3-b]pyridin-3-yl]-5-(trifluoromethyl)pyrimidin-2-amine] | > 0.5 | < 0.1 | < 0.1 | > 1 | > 0.5 | < 0.1 | > 0.5 | < 0.03
6 | C[C@@H]1CC[C@@H](Nc2ncc(C(F)(F)F)c(-c3c[nH]c4nc(-c5cnnn5C)ccc34)n2)CN1 [Compound 151, N-[(3R,6R)-6-methyl-3-piperidyl]-4-[6-(3-methyltriazol-4-yl)-1H-pyrrolo[2,3-b]pyridin-3-yl]-5-(trifluoromethyl)pyrimidin-2-amine] | > 0.5 | 0.5 to 1 | > 1 | > 1 | > 0.5 | > 1 | > 0.5 | < 0.03
7 | CO[C@@H]1CCNC[C@H]1Nc1ncc(C(F)(F)F)c(-c2c[nH]c3cc(-c4c(C)noc4C)ccc23)n1 (single isomer, unassigned) [Compound 127] | > 0.5 | < 0.1 | > 1 | 0.1 to 0.5 | > 0.5 | < 0.1 | > 0.5 | < 0.03
8 | C[C@@H]1CC[C@@H](Nc2ncc(C(F)(F)F)c(-c3c[nH]c4nc(-c5nnnn5C)ccc34)n2)CN1 [Compound 164, N-[(3R, 6R)-6-methyl-3-piperidyl]-4-[6-(1-methyltetrazol-5-yl)-1H-pyrrolo[2,3-b]pyridin-3-yl]-5-(trifluoromethyl)pyrimidin-2-amine] | > 0.5 | < 0.1 | 0.1 to 0.5 | 0.5 to 1 | > 0.5 | < 0.1 | > 0.5 | < 0.03
9 | Cc1nc(-c2ccc3c(-c4nc(N[C@H]5CCCNC5)ncc4C(F)(F)F)n[nH]c3n2)no1 [Compound 168, 4-[6-(5-methyl-1,2,4-oxadiazol-3-yl)-1H-pyrazolo[3,4-b]pyridin-3-yl]-N-[(3S)-3-piperidyl]-5-(trifluoromethyl)pyrimidin-2-amine] | > 0.5 | < 0.1 | < 0.1 | < 0.1 | > 0.5 | < 0.1 | > 0.5 | < 0.03
